Measured values taken from patent publication US20110262508A1, “ANTIMICROBIAL COMPOSITIONS, FORMULATIONS AND USES THEREOF” (priority 2007, published 2011).
≈ marks a conversion by molar mass, not a printed value. Square brackets hold non-standard residues; d marks the D form. Peptide text beside a SMILES is read from it.

Tested on: A. baumannii
Assay type: cell-based
Settings: not given
Description: Broth dilution methods are e.g., described by Lorian (2007) In: Antibiotics in Laboratory Medicine, Fifth Edition; and In: Clinical and Laboratory Standards Institute, CLSI (formerly NCCLS), In: Methods for Dilution Antimicrobial Susceptibility Tests for Bacteria that Grow Aerobically—Approved Standard—Seventh Edition, CLSI document M7-A7, Villanova, Pa. (NCCLS; January 2006; Vol. 26 No. 2); and In: Clinical and Laboratory Standards Institute, CLSI (formerly NCCLS), Performance Standards for Antimicrobial Susceptibility Testing, Seventeenth Informational Supplement, M100-S17, Vol 27 No. 1 January 2007, all of which are incorporated herein by reference.
The present inventors used such methods to quantitate activity in vitro of antimicrobial peptides of the invention against bacterial isolates, including laboratory strains and 50 clinical isolates of A. baumannii, and S. aureus ATCC Accession No. 2992. Briefly, small volumes of broth are dispensed in sterile, plastic microtiter trays, and 100 μl of serially-diluted antimicrobial peptide (0.1-64 μg) and 100 μl test organism (approximately 1×10^5 C.F.U.), are added. Following aerobic incubation overnight at 35±2° C. Control samples lacked peptide (Growth control), or lacked peptide and bacteria (Sterility control). The trays were examined visually and the minimal inhibitory concentration (MIC) of peptide required to inhibit bacterial growth were determined. The minimum bactericidal concentration (MBC) was estimated by sub-culturing the wells for which no bacterial growth was visible to the naked eye, to thereby determine a concentration of antimicrobial that reduces the original inoculum by at least about 99.9%.

| SMILES | MIC (μM) for amidated peptide [µM] | MIC (μM) for non-amidated Peptide [µM] | MBC [µM] | MIC [µM] |
| --- | --- | --- | --- | --- |
| CC(C)C[C@@H](NC(=O)[C@@H](CCCNC(=N)N)NC(=O)[C@H](N)Cc1ccc(O)cc1)C(=O)N[C@H](CC(C)C)C(=O)N[C@H](CCCNC(=N)N)C(=O)N[C@H](CCCCN)C(=O)N[C@@H](C(=O)N[C@@H](C(=O)N[C@H](Cc1ccccc1)C(=O)N[C@H](CS)C(=O)N[C@H](CC(C)C)C(=O)N[C@H](CCCCN)C(=O)N[C@@H](C(=O)N[C@H](CO)C(=O)N[C@H](CC(C)C)C(=O)N[C@@H](C(=O)N[C@H](CCCCN)C(=O)N1CCC[C@@H]1C(=O)N[C@H](Cc1ccccc1)C(=O)N[C@H](Cc1c[nH]cn1)C(=O)N[C@H](Cc1ccccc1)C(=O)N[C@H](Cc1ccc(O)cc1)C(=O)N1CCC[C@@H]1C(=O)O)[C@H](C)O)[C@H](C)O)[C@H](C)O)[C@H](C)O [Ac5r] (H-[dY][dR][dL][dL][dR][dK][dT][dT][dF][dC][dL][dK][dT][dS][dL][dT][dK][dP][dF][dH][dF][dY][dP]-OH; N-terminus and C-terminus assumed) | 5 | 15 | – | – |
| CC[C@H](C)[C@H](NC(=O)[C@H](CS)NC(=O)[C@H](CS)NC(=O)[C@H](CCCNC(=N)N)NC(=O)[C@H](CC(=O)O)NC(=O)[C@H](CO)NC(=O)[C@H](CC(C)C)NC(=O)[C@H](CCCNC(=N)N)NC(=O)[C@H](CCCNC(=N)N)NC(=O)[C@H](CC(C)C)NC(=O)[C@H](Cc1ccccc1)NC(=O)CNC(=O)[C@H](CO)NC(=O)[C@@H]1CCCN1C(=O)[C@H](Cc1c[nH]c2ccccc12)NC(=O)[C@@H](NC(=O)[C@@H]1CCCN1)C(C)C)C(=O)N[C@@H](Cc1c[nH]cn1)C(=O)N[C@@H](CO)C(=O)N[C@@H](CCCNC(=N)N)C(=O)N[C@@H](CCC(N)=O)C(=O)N[C@@H](C)C(=O)N[C@@H](CCC(N)=O)C(=O)O [Ac329] (H-PVWPSGFLRRLSDRCCIHSRQAQ-OH; N-terminus and C-terminus assumed) | – | – | 39 (≈ 106 µg/mL) | 30 (≈ 81.4 µg/mL) |
| CC[C@H](C)[C@H](NC(=O)[C@H](CCCNC(=N)N)NC(=O)[C@H](CCCNC(=N)N)NC(=O)[C@H](CC(C)C)NC(=O)[C@H](CC(=O)O)NC(=O)[C@H](CCC(=O)O)NC(=O)[C@H](CCCNC(=N)N)NC(=O)[C@H](CC(C)C)NC(=O)[C@H](CCCNC(=N)N)NC(=O)CNC(=O)[C@H](CO)NC(=O)[C@H](Cc1ccccc1)NC(=O)[C@@H](NC(=O)[C@H](CC(C)C)NC(=O)[C@@H](NC(=O)CNC(=O)[C@H](Cc1ccccc1)NC(=O)[C@@H](NC(=O)[C@@H](NC(=O)CNC(=O)CN)C(C)C)C(C)C)C(C)C)[C@@H](C)O)C(=O)N[C@@H](CS)C(=O)N[C@@H](CCCNC(=N)N)C(=O)O [Ac338] (H-GGVVFGVLTFSGRLREDLRRICR-OH; N-terminus and C-terminus assumed) | – | – | 30 (≈ 78.2 µg/mL) | 30 (≈ 78.2 µg/mL) |
| CC[C@H](C)[C@H](NC(=O)[C@H](CCC(N)=O)NC(=O)[C@H](CCCNC(=N)N)NC(=O)[C@H](CS)NC(=O)[C@@H](NC(=O)[C@H](CCCNC(=N)N)NC(=O)[C@H](CCCNC(=N)N)NC(=O)[C@H](CC(C)C)NC(=O)[C@H](CC(=O)O)NC(=O)[C@H](CCC(=O)O)NC(=O)[C@H](CCCNC(=N)N)NC(=O)[C@H](CC(C)C)NC(=O)[C@H](CCCNC(=N)N)NC(=O)CNC(=O)[C@H](CO)NC(=O)[C@H](Cc1ccccc1)NC(=O)[C@@H](NC(=O)[C@H](CC(C)C)NC(=O)[C@@H](NC(=O)CN)C(C)C)[C@@H](C)O)[C@@H](C)CC)C(=O)N[C@@H](CO)C(=O)N[C@@H](C)C(=O)N[C@@H](Cc1ccc(O)cc1)C(=O)O [Ac339] (H-GVLTFSGRLREDLRRICRQISAY-OH; N-terminus and C-terminus assumed) | – | 20 | 40 (≈ 108 µg/mL) | 20 (≈ 54.2 µg/mL) |
| CC[C@H](C)[C@H](NC(=O)[C@H](CCC(N)=O)NC(=O)[C@H](CCCNC(=N)N)NC(=O)[C@H](CS)NC(=O)[C@@H](NC(=O)[C@H](CCCNC(=N)N)NC(=O)[C@H](CCCNC(=N)N)NC(=O)[C@H](CC(C)C)NC(=O)[C@H](CC(=O)O)NC(=O)[C@H](CCC(=O)O)NC(=O)[C@H](CCCNC(=N)N)NC(=O)[C@H](CC(C)C)NC(=O)[C@H](CCCNC(=N)N)NC(=O)CNC(=O)[C@@H](N)CO)[C@@H](C)CC)C(=O)N[C@@H](CO)C(=O)N[C@@H](C)C(=O)N[C@@H](Cc1ccc(O)cc1)C(=O)N[C@@H](CCCCN)C(=O)N[C@@H](CO)C(=O)N[C@@H](CC(=O)O)C(=O)N[C@@H](CO)C(=O)N[C@@H](CO)C(=O)O [Ac340] (H-SGRLREDLRRICRQISAYKSDSS-OH; N-terminus and C-terminus assumed) | – | – | 40 (≈ 108 µg/mL) | 40 (≈ 108 µg/mL) |
| CC[C@H](C)[C@H](NC(=O)[C@H](CO)NC(=O)[C@H](Cc1c[nH]c2ccccc12)NC(=O)[C@H](CS)NC(=O)[C@H](CCCNC(=N)N)NC(=O)[C@H](CS)NC(=O)[C@@H](NC(=O)[C@@H](NC(=O)[C@@H]1CCCN1C(=O)[C@H](CCCNC(=N)N)NC(=O)[C@H](C)NC(=O)[C@H](C)NC(=O)[C@H](CS)NC(=O)[C@H](CCCNC(=N)N)NC(=O)[C@H](CCCCN)NC(=O)[C@H](CCCNC(=N)N)NC(=O)[C@@H](N)[C@@H](C)O)[C@@H](C)O)[C@@H](C)O)C(=O)NCC(=O)N[C@@H](CCCNC(=N)N)C(=O)N[C@@H](C)C(=O)N[C@@H](Cc1c[nH]c2ccccc12)C(=O)N[C@@H](CCCCN)C(=O)N[C@@H](C)C(=O)O [Ac364] (H-TRKRCAARPTTCRCWSIGRAWKA-OH; N-terminus and C-terminus assumed) | – | – | 40 (≈ 107 µg/mL) | 40 (≈ 107 µg/mL) |
| CSCC[C@H](N)C(=O)NCC(=O)N[C@@H](CCCNC(=N)N)C(=O)N[C@@H](CC(C)C)C(=O)N[C@@H](CO)C(=O)NCC(=O)N[C@H](C(=O)N[C@@H](C)C(=O)N[C@@H](Cc1c[nH]c2ccccc12)C(=O)N[C@@H](CCCNC(=N)N)C(=O)N[C@@H](CCCNC(=N)N)C(=O)N[C@@H](CC(C)C)C(=O)N[C@@H](CO)C(=O)N[C@@H](CC(C)C)C(=O)N[C@@H](CCCNC(=N)N)C(=O)N[C@@H](Cc1c[nH]cn1)C(=O)N[C@@H](CS)C(=O)N[C@@H](CCC(=O)O)C(=O)N[C@@H](CS)C(=O)NCC(=O)N[C@@H](CCCNC(=N)N)C(=O)N[C@@H](CCCNC(=N)N)C(=O)N1CCC[C@H]1C(=O)O)C(C)C [Ac370] (H-MGRLSGVAWRRLSLRHCECGRRP-OH; N-terminus and C-terminus assumed) | – | 20 | 20 (≈ 53.9 µg/mL) | 20 (≈ 53.9 µg/mL) |
| CC(C)C[C@H](NC(=O)CNC(=O)[C@H](CS)NC(=O)[C@H](CO)NC(=O)CNC(=O)[C@H](CCCNC(=N)N)NC(=O)[C@H](CS)NC(=O)[C@H](CCCCN)NC(=O)[C@H](CO)NC(=O)[C@H](CC(C)C)NC(=O)[C@@H](NC(=O)[C@H](CC(N)=O)NC(=O)[C@H](CS)NC(=O)[C@H](C)NC(=O)[C@H](CCCNC(=N)N)NC(=O)[C@H](Cc1c[nH]c2ccccc12)NC(=O)[C@H](CCCNC(=N)N)NC(=O)[C@H](Cc1c[nH]c2ccccc12)NC(=O)CNC(=O)[C@H](C)NC(=O)CN)[C@@H](C)O)C(=O)N[C@@H](CCCNC(=N)N)C(=O)N[C@H](C(=O)O)C(C)C [Ac379] (H-GAGWRWRACNTLSKCRGSCGLRV-OH; N-terminus and C-terminus assumed) | – | – | 39 (≈ 99 µg/mL) | 30 (≈ 76.1 µg/mL) |
| CC(C)C[C@H](NC(=O)CNC(=O)[C@H](CS)NC(=O)[C@H](CO)NC(=O)CNC(=O)[C@H](CCCNC(=N)N)NC(=O)[C@H](CS)NC(=O)[C@H](CCCCN)NC(=O)[C@H](CO)NC(=O)[C@H](CC(C)C)NC(=O)[C@@H](NC(=O)[C@H](CC(N)=O)NC(=O)[C@H](CS)NC(=O)[C@H](C)NC(=O)[C@H](CCCNC(=N)N)NC(=O)[C@@H](N)Cc1c[nH]c2ccccc12)[C@@H](C)O)C(=O)N[C@@H](CCCNC(=N)N)C(=O)N[C@H](C(=O)N[C@@H](Cc1c[nH]c2ccccc12)C(=O)N[C@@H](C)C(=O)NCC(=O)N[C@@H](CCCNC(=N)N)C(=O)NCC(=O)O)C(C)C [Ac380] (H-WRACNTLSKCRGSCGLRVWAGRG-OH; N-terminus and C-terminus assumed) | – | – | – | 40 (≈ 102 µg/mL) |

Same assay, conditions: A. baumannii (Table 8)

| SMILES | MIC [µM] |
| --- | --- |
| CSCC[C@H](NC(=O)[C@H](CC(C)C)NC(=O)[C@H](CCCCN)NC(=O)[C@H](CCCCN)NC(=O)[C@@H](NC(=O)[C@@H](NC(=O)[C@H](C)NC(=O)[C@H](Cc1ccccc1)NC(=O)[C@H](Cc1ccc(O)cc1)NC(=O)CNC(=O)[C@H](CS)NC(=O)[C@H](Cc1c[nH]cn1)NC(=O)[C@@H]1CCCN1C(=O)CNC(=O)CN)[C@@H](C)O)[C@@H](C)O)C(=O)N[C@@H](CCCNC(=N)N)C(=O)N[C@@H](CCCCN)C(=O)N[C@H](C(=O)N1CCC[C@H]1C(=O)NCC(=O)N[C@@H](CCCNC(=N)N)C(=O)N[C@@H](CC(C)C)C(=O)N[C@H](C(=O)O)C(C)C)C(C)C [Ac330] (H-GGPHCGYFATTKKLMRKVPGRLV-OH; N-terminus and C-terminus assumed) | 20 (≈ 50.3 µg/mL) |

Same assay, conditions: A. baumannii (Table 8); reduces original inoculum by at least about 99.9%

| SMILES | MBC [µM] |
| --- | --- |
| CSCC[C@H](NC(=O)[C@H](CC(C)C)NC(=O)[C@H](CCCCN)NC(=O)[C@H](CCCCN)NC(=O)[C@@H](NC(=O)[C@@H](NC(=O)[C@H](C)NC(=O)[C@H](Cc1ccccc1)NC(=O)[C@H](Cc1ccc(O)cc1)NC(=O)CNC(=O)[C@H](CS)NC(=O)[C@H](Cc1c[nH]cn1)NC(=O)[C@@H]1CCCN1C(=O)CNC(=O)CN)[C@@H](C)O)[C@@H](C)O)C(=O)N[C@@H](CCCNC(=N)N)C(=O)N[C@@H](CCCCN)C(=O)N[C@H](C(=O)N1CCC[C@H]1C(=O)NCC(=O)N[C@@H](CCCNC(=N)N)C(=O)N[C@@H](CC(C)C)C(=O)N[C@H](C(=O)O)C(C)C)C(C)C [Ac330] (H-GGPHCGYFATTKKLMRKVPGRLV-OH; N-terminus and C-terminus assumed) | 40 (≈ 101 µg/mL) |

Same assay, conditions: non-amidated peptide; strongly inhibitory against A. baumannii (Table 7)

| SMILES | MIC (μM) for non-amidated Peptide [µM] |
| --- | --- |
| CSCC[C@H](NC(=O)[C@H](CC(C)C)NC(=O)[C@H](CCCCN)NC(=O)[C@H](CCCCN)NC(=O)[C@@H](NC(=O)[C@@H](NC(=O)[C@H](C)NC(=O)[C@H](Cc1ccccc1)NC(=O)[C@H](Cc1ccc(O)cc1)NC(=O)CNC(=O)[C@H](CS)NC(=O)[C@H](Cc1c[nH]cn1)NC(=O)[C@@H]1CCCN1C(=O)CNC(=O)CN)[C@@H](C)O)[C@@H](C)O)C(=O)N[C@@H](CCCNC(=N)N)C(=O)N[C@@H](CCCCN)C(=O)N[C@H](C(=O)N1CCC[C@H]1C(=O)NCC(=O)N[C@@H](CCCNC(=N)N)C(=O)N[C@@H](CC(C)C)C(=O)N[C@H](C(=O)O)C(C)C)C(C)C [Ac330] (H-GGPHCGYFATTKKLMRKVPGRLV-OH; N-terminus and C-terminus assumed) | 20 |
